Legend:
Format in all cases: cell-based, mouse
[1] = test system: α7 integrin (LacZ reporter in α7+/LacZ myotubes); test: Myotube α7 integrin FDG assay (Burkin assay in myotubes, 96-well); conditions: myotubes
[2] = test system: β-galactosidase in CMV-LacZ C2C12 myotubes; test: CMV-LacZ secondary screen in C2C12 myotubes (β-Gal stabilizing assay); conditions: C2C12 CMV-LacZ myotubes, fold relative to DMSO
Method in brief: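 Stable CMV-LacZ C2C12 clone; six-point curve 0.5–40 μM; duplicates.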

[3] = test system: β-galactosidase in CMV-LacZ C2C12 myoblasts; test: CMV-LacZ secondary screen in C2C12 myoblasts (β-Gal stabilizing assay); conditions: CMV-LacZ C2C12 myoblasts
Source text: In order to determine compounds that acted to stabilize β-gal in myogenic cells, a CMV-LacZ C2C12 cell line was used in a secondary screen. The EGFP gene from the pEGFP (Clontech) vector was replaced by LACZ PCR product with digests of the vector/PCR product performed using EcoRI (NEB) and NotI (NEB) and ligated using T4 DNA Ligase (NEB) following standard procedures to produce the CMV-LACZ vector. The LACZ gene was generated by PCR from the pBK-RSV (Stratagene) vector using primers LACZ EcoRI F- and LACZ NotI R-. The CMV-LACZ vector was then digested with AfIII (NEB) to linearize the construct, which was then transfected in C2C12 myoblasts using Lipofectamine 2000 (Invitrogen) following the manufacturer's instructions. […] Clonal lines were selected and screened for βgal levels using the myoblast FDG assay.
The assays were used the original 96-well format and new dose-response curves for myoblasts (N=3-6 replicates for each data point), myotubes (N=3-6 replicates for data point), and CMV-LacZ secondary assay (N=2 replicates for each data point) using concentrations of 0.5 μM, 1 μM, 5 μM, 10 μM, 20 μM, and 40 μM (Tables 9-16).

[4] = test system: α7 integrin (LacZ reporter in α7βgal+/− myoblasts); test: Myoblast α7+/LacZ integrin FDG assay (Burkin assay in myoblasts, 96-well); conditions: α7+/LacZ myoblasts, 96-well

Row | Compound | Burkin Assay in Myotubes, α7 integrin LacZ reporter signal relative to DMSO ([1]; 0.5 uM) | Burkin Assay in Myotubes, α7 integrin LacZ reporter signal relative to DMSO ([1]; 1 uM) | Burkin Assay in Myotubes, α7 integrin LacZ reporter signal relative to DMSO ([1]; 5 uM) | Burkin Assay in Myotubes, α7 integrin LacZ reporter signal relative to DMSO ([1]; 10 uM) | Burkin Assay in Myotubes, α7 integrin LacZ reporter signal relative to DMSO ([1]; 20 uM) | Burkin Assay in Myotubes, α7 integrin LacZ reporter signal relative to DMSO ([1]; 40 uM) | CMV-LACZ in Myotubes, signal relative to DMSO ([2]; 0.5 uM) | CMV-LACZ in Myotubes, signal relative to DMSO ([2]; 1 uM) | CMV-LACZ in Myotubes, signal relative to DMSO ([2]; 5 uM) | CMV-LACZ in Myotubes, signal relative to DMSO ([2]; 10 uM) | CMV-LACZ in Myotubes, signal relative to DMSO ([2]; 20 uM) | CMV-LACZ in Myotubes, signal relative to DMSO ([2]; 40 uM) | CMV-LACZ in Myoblasts (β-galactosidase activity relative to DMSO) ([3]; 0.5 uM) | CMV-LACZ in Myoblasts (β-galactosidase activity relative to DMSO) ([3]; 1 uM) | CMV-LACZ in Myoblasts (β-galactosidase activity relative to DMSO) ([3]; 5 uM) | CMV-LACZ in Myoblasts (β-galactosidase activity relative to DMSO) ([3]; 10 uM) | CMV-LACZ in Myoblasts (β-galactosidase activity relative to DMSO) ([3]; 20 uM) | CMV-LACZ in Myoblasts (β-galactosidase activity relative to DMSO) ([3]; 40 uM) | Burkin Assay in Myoblasts, signal relative to DMSO ([4]; 0.5 uM) | Burkin Assay in Myoblasts, signal relative to DMSO ([4]; 1 uM) | further results
1 | CCOn1c(=O)c(-c2ccccc2)[n+]([O-])c2ccccc21 [MLS001197220-01] | 1.327 | 1.3061 | 1.254 | 1.004 | 0.9 | 0.831 | 0.8896 | 0.9356 | 0.9682 | 0.9289 | 0.9659 | 1.0271 | 1.2028 | 1.1569 | 0.9355 | 1.1383 | 0.9567 | 1.2844 | 1.2811 | 1.286 | Burkin Assay in Myoblasts, signal relative to DMSO ([4]; 5 uM): 1.843; Burkin Assay in Myoblasts, signal relative to DMSO ([4]; 10 uM): 0.9218; Burkin Assay in Myoblasts, signal relative to DMSO ([4]; 20 uM): 1.111; Burkin Assay in Myoblasts, signal relative to DMSO ([4]; 40 uM): 1.0836
2 | Cc1cc(OCC(=O)NC(C)C)ccc1Cl [MLS000684034-01] | 0.9731 | 0.9536 | 0.8383 | 0.8076 | 0.7403 | 0.7385 | 1.0962 | 0.9810 | 1.1407 | 1.1903 | 1.2347 | 1.0105 | 1.2525 | 1.1492 | 1.2045 | 1.0568 | 0.5374 | 0.3100 | 0.999 | 1.02 | Burkin Assay in Myoblasts, signal relative to DMSO ([4]; 5 uM): 0.7872; Burkin Assay in Myoblasts, signal relative to DMSO ([4]; 10 uM): 0.6258; Burkin Assay in Myoblasts, signal relative to DMSO ([4]; 20 uM): 0.4225; Burkin Assay in Myoblasts, signal relative to DMSO ([4]; 40 uM): 0.3085
3 | CC(C)c1ccc(OC(=O)c2cccc(S(=O)(=O)N3CCN(C)CC3)c2)cc1 [MLS001130011-01] | 0.9553 | 0.9952 | 0.8834 | 1.0699 | 0.7883 | 0.7512 | 0.9358 | 1.0211 | 0.9057 | 0.8998 | 0.8367 | 1.0156 | 1.1702 | 0.7695 | 1.0011 | 1.1138 | 0.7837 | 0.8311 | 0.9715 | 0.8947 | Burkin Assay in Myoblasts, signal relative to DMSO ([4]; 5 uM): 1.374; Burkin Assay in Myoblasts, signal relative to DMSO ([4]; 10 uM): 0.9762; Burkin Assay in Myoblasts, signal relative to DMSO ([4]; 20 uM): 1.037; Burkin Assay in Myoblasts, signal relative to DMSO ([4]; 40 uM): 0.9155
4 | O=C(COc1ccc(Cl)cc1)N1CCN(C2CCCC2)CC1.O=C(O)C(=O)O [MLS001221318-01] | 1.133 | 1.082 | 0.9266 | 0.9591 | 0.8071 | 0.7186 | 1.0037 | 1.4059 | 1.1337 | 0.9944 | 1.2212 | 0.8576 | 0.8528 | 1.0538 | 1.0999 | 0.9955 | 1.0181 | 1.5641 | 1.118 | 1.283 | Burkin Assay in Myoblasts, signal relative to DMSO ([4]; 5 uM): 1.01; Burkin Assay in Myoblasts, signal relative to DMSO ([4]; 10 uM): 0.9944; Burkin Assay in Myoblasts, signal relative to DMSO ([4]; 20 uM): 1.054; Burkin Assay in Myoblasts, signal relative to DMSO ([4]; 40 uM): 1.075
